Data published in ChEMBL document CHEMBL1201862, “PubChem BioAssay data set” (2004).
Active and inactive are the calls of the source.

What was measured:
Type in all cases: functional
[1] = target: Glucose-6-phosphate 1-dehydrogenase (Homo sapiens, UniProt P11413); test: inhibition of Homo sapiens G6PD, dose series – biochemical, fluorescence, selectivity assay for P. falciparum G6PD inhibitor project, dose response (AID 504792)
Caspase-3 = target: T1, Caspase-3 (Homo sapiens, UniProt P42574);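 note: Dose-response selectivity test against caspase-3 for candidate inhibitors of sentrin-specific proteases (SENPs)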
T1 sequence (P42574 whole entry): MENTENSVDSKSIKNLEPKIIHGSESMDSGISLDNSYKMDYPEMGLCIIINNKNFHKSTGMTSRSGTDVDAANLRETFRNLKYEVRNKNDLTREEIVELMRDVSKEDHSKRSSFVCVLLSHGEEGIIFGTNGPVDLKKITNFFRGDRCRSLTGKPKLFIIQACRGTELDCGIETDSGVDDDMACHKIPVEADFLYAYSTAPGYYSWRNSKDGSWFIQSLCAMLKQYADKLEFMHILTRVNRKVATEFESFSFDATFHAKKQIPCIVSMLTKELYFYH

[2] = target: T2, Replicative DNA helicase DnaB (Mycobacterium tuberculosis, UniProt P9WMR3); test: DnaB intein splicing inhibitors, dose response, biochemical, cell-free fluorescence (AID 449749)
T2 sequence (P9WMR3 whole entry): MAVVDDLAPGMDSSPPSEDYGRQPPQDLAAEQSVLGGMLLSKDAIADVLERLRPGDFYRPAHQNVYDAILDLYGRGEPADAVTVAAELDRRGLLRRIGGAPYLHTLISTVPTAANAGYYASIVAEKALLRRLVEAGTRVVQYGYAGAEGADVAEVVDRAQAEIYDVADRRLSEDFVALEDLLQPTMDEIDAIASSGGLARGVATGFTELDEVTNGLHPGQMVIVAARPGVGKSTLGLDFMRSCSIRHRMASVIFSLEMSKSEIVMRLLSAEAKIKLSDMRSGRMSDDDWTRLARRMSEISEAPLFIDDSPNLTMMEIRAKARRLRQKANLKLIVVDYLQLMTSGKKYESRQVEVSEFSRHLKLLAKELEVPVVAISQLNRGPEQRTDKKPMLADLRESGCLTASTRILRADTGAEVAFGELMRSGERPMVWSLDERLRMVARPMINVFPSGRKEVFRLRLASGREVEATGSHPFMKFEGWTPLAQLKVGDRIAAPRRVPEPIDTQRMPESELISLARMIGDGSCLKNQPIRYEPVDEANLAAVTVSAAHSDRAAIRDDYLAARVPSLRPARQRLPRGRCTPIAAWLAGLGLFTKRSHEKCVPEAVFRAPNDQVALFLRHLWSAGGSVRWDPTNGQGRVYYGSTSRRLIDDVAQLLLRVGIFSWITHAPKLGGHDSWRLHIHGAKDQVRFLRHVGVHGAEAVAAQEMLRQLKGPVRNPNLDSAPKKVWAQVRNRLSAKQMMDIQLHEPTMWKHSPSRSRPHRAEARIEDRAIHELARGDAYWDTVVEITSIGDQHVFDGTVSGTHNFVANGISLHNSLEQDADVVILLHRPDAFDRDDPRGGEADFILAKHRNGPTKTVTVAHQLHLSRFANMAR

Protein RecA = target: T3, Protein RecA (Mycobacterium tuberculosis, UniProt P9WHJ3); test: Fluorescence Cell-Free Homogeneous Dose Retest to Identify Inhibitors of RecA-Intein Splicing Activity. [Related pubchem assays (depositor defined):AID2097, AID2223, AID489010, AID492950]
T3 sequence (P9WHJ3 whole entry): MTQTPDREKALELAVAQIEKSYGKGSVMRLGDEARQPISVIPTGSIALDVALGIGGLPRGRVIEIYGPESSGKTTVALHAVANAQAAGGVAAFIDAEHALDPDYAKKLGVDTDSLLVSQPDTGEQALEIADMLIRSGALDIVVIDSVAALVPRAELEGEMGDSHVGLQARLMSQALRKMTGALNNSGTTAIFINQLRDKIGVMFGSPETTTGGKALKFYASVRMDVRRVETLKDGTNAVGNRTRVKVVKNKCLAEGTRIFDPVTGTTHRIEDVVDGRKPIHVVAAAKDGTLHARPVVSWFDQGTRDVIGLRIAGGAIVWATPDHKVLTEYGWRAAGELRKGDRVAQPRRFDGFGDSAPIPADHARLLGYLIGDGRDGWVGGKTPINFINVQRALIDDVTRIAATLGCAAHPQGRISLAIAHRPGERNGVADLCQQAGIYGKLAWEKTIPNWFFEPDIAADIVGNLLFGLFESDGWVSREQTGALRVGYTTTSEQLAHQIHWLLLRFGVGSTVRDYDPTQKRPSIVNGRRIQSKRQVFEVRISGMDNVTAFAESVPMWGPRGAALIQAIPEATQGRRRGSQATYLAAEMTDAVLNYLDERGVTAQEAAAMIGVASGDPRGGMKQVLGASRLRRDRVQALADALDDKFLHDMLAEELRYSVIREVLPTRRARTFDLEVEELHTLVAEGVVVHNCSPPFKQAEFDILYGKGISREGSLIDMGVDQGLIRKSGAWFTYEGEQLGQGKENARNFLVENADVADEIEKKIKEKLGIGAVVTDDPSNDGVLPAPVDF

[3] = target: Tyrosine-protein kinase JAK2 (Homo sapiens, UniProt O60674);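 note: JAK2 tested as one member of a kinase panel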
[4] = target: 5'-AMP-activated protein kinase catalytic subunit alpha-1 (Homo sapiens, UniProt Q13131)
[5] = target: Death-associated protein kinase 3 (Homo sapiens, UniProt O43293);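 note: measured as one member of a kinome-wide profiling panel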
[6] = target: High affinity nerve growth factor receptor (Homo sapiens, UniProt P04629);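 note: NTRK1 tested as one member of a kinome-wide profiling panel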
[7] = target: T4, cAMP-dependent protein kinase catalytic subunit PRKX (Homo sapiens, UniProt P51817)
T4 sequence (P51817 whole entry): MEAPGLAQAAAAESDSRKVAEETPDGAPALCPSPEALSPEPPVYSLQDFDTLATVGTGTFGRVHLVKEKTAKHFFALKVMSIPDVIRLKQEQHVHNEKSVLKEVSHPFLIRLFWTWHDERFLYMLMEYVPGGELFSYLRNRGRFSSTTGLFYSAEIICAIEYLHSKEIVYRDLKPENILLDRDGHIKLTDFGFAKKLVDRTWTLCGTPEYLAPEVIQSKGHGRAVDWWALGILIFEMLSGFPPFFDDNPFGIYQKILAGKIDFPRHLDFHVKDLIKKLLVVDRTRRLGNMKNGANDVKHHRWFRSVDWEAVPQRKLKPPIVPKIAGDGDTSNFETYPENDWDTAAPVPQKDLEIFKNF

Chain of 5'-AMP-activated protein kinase catalytic subunit alpha-1 (Q13131 whole entry): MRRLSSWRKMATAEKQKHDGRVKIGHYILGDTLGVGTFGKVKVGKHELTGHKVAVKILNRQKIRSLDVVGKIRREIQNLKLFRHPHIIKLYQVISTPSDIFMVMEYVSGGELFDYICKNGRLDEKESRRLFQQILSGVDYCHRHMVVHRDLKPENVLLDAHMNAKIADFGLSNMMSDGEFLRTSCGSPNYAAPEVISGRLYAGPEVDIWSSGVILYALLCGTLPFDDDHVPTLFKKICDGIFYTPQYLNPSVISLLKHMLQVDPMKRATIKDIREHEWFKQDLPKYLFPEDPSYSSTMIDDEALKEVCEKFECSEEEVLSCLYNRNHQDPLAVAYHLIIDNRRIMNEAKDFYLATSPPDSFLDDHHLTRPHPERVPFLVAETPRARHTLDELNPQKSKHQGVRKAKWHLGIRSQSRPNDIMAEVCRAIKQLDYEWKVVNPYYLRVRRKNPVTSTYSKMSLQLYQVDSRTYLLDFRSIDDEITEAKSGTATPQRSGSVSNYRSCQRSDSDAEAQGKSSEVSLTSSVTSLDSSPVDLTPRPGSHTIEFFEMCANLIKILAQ
Chain of Tyrosine-protein kinase JAK2 (O60674 whole entry): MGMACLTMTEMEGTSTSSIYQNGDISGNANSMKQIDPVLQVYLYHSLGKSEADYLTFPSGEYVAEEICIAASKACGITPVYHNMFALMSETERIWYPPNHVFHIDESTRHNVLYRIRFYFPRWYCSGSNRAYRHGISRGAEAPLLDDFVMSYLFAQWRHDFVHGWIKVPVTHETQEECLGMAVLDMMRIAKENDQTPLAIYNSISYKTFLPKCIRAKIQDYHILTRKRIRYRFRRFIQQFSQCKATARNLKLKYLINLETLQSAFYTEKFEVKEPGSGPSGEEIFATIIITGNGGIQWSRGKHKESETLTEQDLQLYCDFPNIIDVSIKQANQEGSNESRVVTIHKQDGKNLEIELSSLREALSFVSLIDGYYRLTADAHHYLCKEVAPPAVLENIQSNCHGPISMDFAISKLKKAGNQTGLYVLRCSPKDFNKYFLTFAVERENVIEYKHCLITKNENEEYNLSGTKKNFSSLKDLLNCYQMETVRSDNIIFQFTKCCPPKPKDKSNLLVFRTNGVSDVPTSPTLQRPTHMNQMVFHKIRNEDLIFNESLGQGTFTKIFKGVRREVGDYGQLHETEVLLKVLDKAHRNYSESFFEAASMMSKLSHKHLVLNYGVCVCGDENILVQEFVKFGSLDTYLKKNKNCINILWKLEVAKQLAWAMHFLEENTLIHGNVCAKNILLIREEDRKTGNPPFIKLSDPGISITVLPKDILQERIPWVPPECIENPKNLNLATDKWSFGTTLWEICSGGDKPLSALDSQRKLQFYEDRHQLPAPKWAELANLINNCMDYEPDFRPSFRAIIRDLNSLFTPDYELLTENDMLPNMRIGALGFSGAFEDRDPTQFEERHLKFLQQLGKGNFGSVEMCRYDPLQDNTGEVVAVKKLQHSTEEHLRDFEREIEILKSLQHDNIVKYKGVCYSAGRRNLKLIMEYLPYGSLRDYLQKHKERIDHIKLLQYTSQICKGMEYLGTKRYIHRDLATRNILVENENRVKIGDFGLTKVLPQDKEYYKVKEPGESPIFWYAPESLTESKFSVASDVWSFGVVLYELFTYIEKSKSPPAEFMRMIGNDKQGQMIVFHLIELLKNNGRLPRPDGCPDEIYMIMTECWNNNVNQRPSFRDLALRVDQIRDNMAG
Chain of Glucose-6-phosphate 1-dehydrogenase (P11413 whole entry): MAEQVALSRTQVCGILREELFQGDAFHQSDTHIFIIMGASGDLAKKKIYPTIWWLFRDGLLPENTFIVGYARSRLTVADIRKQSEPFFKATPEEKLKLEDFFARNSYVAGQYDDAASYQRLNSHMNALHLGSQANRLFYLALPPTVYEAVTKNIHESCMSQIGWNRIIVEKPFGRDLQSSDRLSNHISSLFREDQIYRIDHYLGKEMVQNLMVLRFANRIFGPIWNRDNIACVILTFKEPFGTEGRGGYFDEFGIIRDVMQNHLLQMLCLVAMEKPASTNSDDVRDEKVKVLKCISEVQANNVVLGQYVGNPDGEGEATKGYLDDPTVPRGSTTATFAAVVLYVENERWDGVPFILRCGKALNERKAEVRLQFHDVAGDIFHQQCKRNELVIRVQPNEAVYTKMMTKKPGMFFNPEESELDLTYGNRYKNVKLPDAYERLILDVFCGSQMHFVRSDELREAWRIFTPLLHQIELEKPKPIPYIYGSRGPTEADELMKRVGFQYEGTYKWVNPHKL
Chain of Death-associated protein kinase 3 (O43293 whole entry): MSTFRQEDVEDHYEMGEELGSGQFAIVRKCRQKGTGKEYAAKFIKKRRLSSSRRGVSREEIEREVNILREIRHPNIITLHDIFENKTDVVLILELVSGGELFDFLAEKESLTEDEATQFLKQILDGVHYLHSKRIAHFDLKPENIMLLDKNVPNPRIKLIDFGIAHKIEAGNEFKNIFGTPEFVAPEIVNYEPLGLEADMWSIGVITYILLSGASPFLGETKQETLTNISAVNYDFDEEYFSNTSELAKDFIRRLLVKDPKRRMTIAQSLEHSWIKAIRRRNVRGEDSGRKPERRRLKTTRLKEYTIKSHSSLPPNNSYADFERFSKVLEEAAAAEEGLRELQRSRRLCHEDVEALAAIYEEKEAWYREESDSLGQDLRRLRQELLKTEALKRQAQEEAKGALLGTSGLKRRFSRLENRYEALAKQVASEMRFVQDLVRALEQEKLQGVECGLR
Chain of High affinity nerve growth factor receptor (P04629 whole entry): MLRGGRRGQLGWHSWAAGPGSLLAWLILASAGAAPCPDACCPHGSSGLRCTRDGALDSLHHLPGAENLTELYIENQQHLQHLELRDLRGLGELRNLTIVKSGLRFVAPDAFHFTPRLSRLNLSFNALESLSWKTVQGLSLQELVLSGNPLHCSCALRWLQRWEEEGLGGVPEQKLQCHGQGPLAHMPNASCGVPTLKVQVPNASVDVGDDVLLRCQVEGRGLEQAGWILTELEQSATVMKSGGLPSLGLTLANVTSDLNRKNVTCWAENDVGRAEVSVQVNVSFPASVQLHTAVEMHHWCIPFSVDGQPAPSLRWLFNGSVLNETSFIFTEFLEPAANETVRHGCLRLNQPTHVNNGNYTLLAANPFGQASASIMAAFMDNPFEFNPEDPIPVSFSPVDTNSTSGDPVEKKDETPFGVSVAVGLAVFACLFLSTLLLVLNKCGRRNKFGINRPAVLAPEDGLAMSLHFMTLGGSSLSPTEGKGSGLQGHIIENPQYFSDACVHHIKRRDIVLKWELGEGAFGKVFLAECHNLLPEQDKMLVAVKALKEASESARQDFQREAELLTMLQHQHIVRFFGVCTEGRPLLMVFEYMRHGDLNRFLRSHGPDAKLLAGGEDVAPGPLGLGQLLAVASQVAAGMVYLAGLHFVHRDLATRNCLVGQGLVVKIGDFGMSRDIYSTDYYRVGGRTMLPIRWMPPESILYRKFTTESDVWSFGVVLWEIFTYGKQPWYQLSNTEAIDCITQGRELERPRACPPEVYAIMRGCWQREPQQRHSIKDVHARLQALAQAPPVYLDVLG

| Structure (SMILES) | IC50 [1] | IC50 (Caspase-3) | AC50 [2] | EC50 (Protein RecA) | Ki [3] | Ki [4] | Ki [5] | Ki [6] | Ki [7] |
| --- | --- | --- | --- | --- | --- | --- | --- | --- | --- |
| Cc1cc(C)c[n+](C2=C([N-]S(=O)(=O)c3cccs3)C(=O)c3ccccc3C2=O)c1 | > 80000 nM (inactive) | 81900 nM (active) | – | – | – | – | – | – | – |
| CCCCCCCCCCC[N+](C)(C)CC/C=C1/c2ccccc2Sc2ccc(Cl)cc21 | – | – | > 380000 nM (inactive) | 10100 nM (active) | – | – | – | – | – |
| CCn1c(-c2nonc2N)nc2cncc(C(=O)N3CCC(N)C3)c21 (stereo not drawn) | – | – | – | – | > 2510 nM (inactive) | > 3160 nM (inactive) | 79.4 nM (active) | > 3160 nM (inactive) | 20 nM (active) |
| Cc1[nH]nc2ccc(-c3cncc(OCC(N)Cc4c[nH]c5ccccc45)c3)cc12 (stereo not drawn) | – | – | – | – | > 1580 nM (inactive) | 158 nM (active) | 100 nM (active) | > 2510 nM (inactive) | 63.1 nM (active) |
| COC(=O)c1ccccc1NC1=C/C(=N\S(=O)(=O)c2cccs2)c2ccccc2C1=O | 27200 nM (inactive) | 68400 nM (active) | > 380000 nM (inconclusive) | 20.8 nM (inconclusive) | – | – | – | – | – |
